Test system: hiPSC clone FTi111
Experiment: Post-thaw recovery of hiPSC clone in various culture environments
Type: cell-based, human
Conditions: conventional culture with feeder cells

## O=C(NCc1ccccc1)c1csc(Nc2ccncn2)n1 [Thiazovivin]
  recovery of hiPSC colonies after thaw: only recovered in the presence of Thiazovivin

Reference: patent publication US11441126B2, “Platform for the induction and maintenance of ground state pluripotency” (Fate Therapeutics, Inc., priority 2015, dated 2022)
